Activity calls are given as the source filed them. No cut-off for these calls is given here.
Assays:
[1] = Toxicity in human RBC assessed as hemolytic activity after 24 hrs by microtiter plate assay; assay type: cell-based, Erythrocyte; conditions: human red blood cells (RBC)
Aspergillus niger = assay: Antifungal activity against Aspergillus niger ATCC 16404 by disk diffusion method; assay type: functional, organism-based
Kluyveromyces marxianus = assay: Antifungal activity against Candida kefyr ATCC 2512 by disk diffusion method; assay type: functional, organism-based

C=CCC/C=C/C=C/C=C/CC/C=C/[C@@H](O)[C@H](O)C1O[C@@H]([C@H](O)[C@H](O)C(=C)CC[C@@H](O)C2C[C@@H](O)[C@@H](O)[C@H]([C@@H](O)[C@H](O)/C=C(\C)CC[C@H](O)C[C@H](O)[C@H](O)[C@@H](C)C[C@H](O)C(O)C(C)CCC(O)CCCC(O)CCCCCOS(=O)(=O)O)O2)C[C@@H](O)[C@H]1O (stereo partly drawn) [AMPHIDINOL 17]
EC50 at 24 h [1]: 4.9 µM | Activity (Aspergillus niger): inactive | Activity (Kluyveromyces marxianus): inactive

From ChEMBL document CHEMBL1154911, “Structure and biosynthesis of amphidinol 17, a hemolytic compound from Amphidinium carterae” (J Nat Prod, 2010)
